Experimental data as given in US20170320870A1 (Medical Research Council Technology, priority 2009, published 2017).

The molecules below were run against T1, LRRK2 wild type (recombinant human, catalytic domain amino acids 970-2527, GST-tagged) (Homo sapiens, UniProt Q5S007) (assay: LRRK2 wild type protein kinase assay ([γ-33P] ATP, peptide substrate […]), IC50). Conditions: LRRK2 (variant not given); read-out: Potency score, LRRK2 IC50.
T1 construct: The wild type used was recombinant human, catalytic domain (amino acids 970-2527) GST-tagged, expressed in insect cells; GST; purchased Invitrogen Corporation PV4873; host or cells: insect cells
Format: biochemical
Summary of the method: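 IC50 derived from duplicate 10-point titrations, with 33P incorporation into a 100 μM peptide counted after P81 filter capture. Roughly 5 nM unactivated kinase reacted with Mg/[γ-33P]ATP for 180 min at room temperature (~21 °C), pH 7.5 Tris buffer containing 10 mM MgCl2, EGTA and DTT; acid-quenched.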

T1 sequence (Q5S007 970-2527): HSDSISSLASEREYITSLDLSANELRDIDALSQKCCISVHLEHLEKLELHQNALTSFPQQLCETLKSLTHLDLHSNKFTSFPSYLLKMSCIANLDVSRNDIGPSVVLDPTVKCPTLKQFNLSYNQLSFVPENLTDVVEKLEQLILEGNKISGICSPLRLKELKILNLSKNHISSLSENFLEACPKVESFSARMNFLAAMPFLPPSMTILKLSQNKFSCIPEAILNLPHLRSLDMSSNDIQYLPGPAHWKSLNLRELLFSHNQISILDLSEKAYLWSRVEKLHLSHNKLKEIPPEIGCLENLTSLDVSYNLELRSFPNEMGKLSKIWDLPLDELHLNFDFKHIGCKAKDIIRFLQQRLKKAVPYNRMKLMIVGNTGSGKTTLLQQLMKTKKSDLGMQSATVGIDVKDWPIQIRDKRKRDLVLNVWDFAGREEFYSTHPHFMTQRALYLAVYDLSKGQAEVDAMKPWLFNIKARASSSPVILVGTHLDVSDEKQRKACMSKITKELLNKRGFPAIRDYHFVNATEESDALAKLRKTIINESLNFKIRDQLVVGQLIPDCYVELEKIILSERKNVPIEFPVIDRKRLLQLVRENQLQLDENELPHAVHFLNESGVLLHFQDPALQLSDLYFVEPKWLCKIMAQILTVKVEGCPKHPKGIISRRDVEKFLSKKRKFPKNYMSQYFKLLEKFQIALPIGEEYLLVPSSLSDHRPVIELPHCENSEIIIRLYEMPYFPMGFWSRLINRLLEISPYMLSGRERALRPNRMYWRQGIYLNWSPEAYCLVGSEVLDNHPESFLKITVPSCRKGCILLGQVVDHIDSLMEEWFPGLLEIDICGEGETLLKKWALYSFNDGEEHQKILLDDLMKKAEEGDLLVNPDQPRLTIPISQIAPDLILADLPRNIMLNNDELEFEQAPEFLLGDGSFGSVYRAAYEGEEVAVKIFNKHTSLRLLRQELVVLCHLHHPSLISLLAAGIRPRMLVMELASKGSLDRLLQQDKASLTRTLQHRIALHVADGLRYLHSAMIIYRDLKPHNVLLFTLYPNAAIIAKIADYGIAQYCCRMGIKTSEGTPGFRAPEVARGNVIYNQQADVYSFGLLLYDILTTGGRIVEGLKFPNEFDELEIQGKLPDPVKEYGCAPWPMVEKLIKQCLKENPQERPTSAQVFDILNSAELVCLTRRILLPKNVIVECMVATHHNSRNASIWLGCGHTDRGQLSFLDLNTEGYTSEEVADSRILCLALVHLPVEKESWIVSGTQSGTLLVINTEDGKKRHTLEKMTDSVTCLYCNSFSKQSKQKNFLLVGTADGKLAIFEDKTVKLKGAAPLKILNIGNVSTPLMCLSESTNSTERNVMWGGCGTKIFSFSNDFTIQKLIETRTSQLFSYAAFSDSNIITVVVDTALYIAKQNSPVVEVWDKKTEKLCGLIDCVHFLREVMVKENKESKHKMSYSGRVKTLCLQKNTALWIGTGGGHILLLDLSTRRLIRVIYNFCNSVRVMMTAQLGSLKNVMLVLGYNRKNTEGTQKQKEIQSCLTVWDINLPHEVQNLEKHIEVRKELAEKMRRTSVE

Question: For `O=C(CC1CC1)Nc1cccc(CCc2n[nH]c3ccnc(NC4CCCCC4)c23)c1` [Example 223, N-{3-[2-(4-Cyclohexylamino-1H-pyrazolo[4,3-c]pyridin-3-yl)-ethyl]-phenyl}-2-cyclopropyl-acetamide], which IC50 is on record?
Answer: < 100 nM

Question: For `CN1CCC(C(=O)Nc2cccc(CCc3n[nH]c4ccnc(NC5CCCCC5)c34)c2)CC1` [Example 224, 1-Methyl-piperidine-4-carboxylic acid {3-[2-(4-cyclohexylamino-1H-pyrazolo[4,3-c]pyridin-3-yl)-ethyl]-phenyl}-amide], which IC50 is on record?
Answer: 100 to 1000 nM

Question: With `O=C(Nc1cccc(CCc2n[nH]c3ccnc(NC4CCCCC4)c23)c1)C1CCCC1` [Example 225, Cyclopentanecarboxylic acid {3-[2-(4-cyclohexylamino-1H-pyrazolo[4,3-c]pyridin-3-yl)-ethyl]-phenyl}-amide] as the molecule, how does the IC50 read?
Answer: < 100 nM

Question: Which IC50 does the source give for `O=C(Nc1cccc(CCc2n[nH]c3ccnc(NC4CCCCC4)c23)c1)c1cccc(Cl)c1` [Example 226, 3-Chloro-N-{3-[2-(4-cyclohexylamino-1H-pyrazolo[4,3-c]pyridin-3-yl)-ethyl]-phenyl}-benzamide] here?
Answer: < 100 nM

Question: Which IC50 does the source give for `O=C(Nc1cccc(CCc2n[nH]c3ccnc(NC4CCCCC4)c23)c1)c1ccc(N2CCOCC2)cc1` [Example 227, N-{3-[2-(4-Cyclohexylamino-1H-pyrazolo[4,3-c]pyridin-3-yl)-ethyl]-phenyl}-4-morpholin-4-yl-benzamide] here?
Answer: < 100 nM

Question: For `O=C(Nc1cccc(CCc2n[nH]c3ccnc(NC4CCCCC4)c23)c1)c1cocn1` [Example 228, Oxazole-4-carboxylic acid {3-[2-(4-cyclohexylamino-1H-pyrazolo[4,3-c]pyridin-3-yl)-ethyl]-phenyl}-amide], which IC50 is on record?
Answer: < 100 nM

Question: Which IC50 does the source give for `CC1CCN(C(=O)c2ccc(CCc3n[nH]c4ccnc(NC5CCCCC5)c34)cc2)CC1` [Example 229, {4-[2-(4-Cyclohexylamino-1H-pyrazolo[4,3-c]pyridin-3-yl)-ethyl]-phenyl}-(4-methyl-piperidin-1-yl)-methanone] here?
Answer: < 100 nM

Question: `O=C1CCCN1c1n[nH]c2ccnc(NC3CCCCC3)c12` [Example 230, 1-(4-Cyclohexylamino-1H-pyrazolo[4,3-c]pyridin-3-yl)-pyrrolidin-2-one] was tested. Which IC50 did it give?
Answer: 1000 to 10000 nM

Question: `OCCCc1n[nH]c2ccnc(NC3CCCCC3)c12` [Example 231, 3-(4-Cyclohexylamino-1H-pyrazolo[4,3-c]pyridin-3-yl)-propan-1-ol] was tested. Which IC50 did it give?
Answer: 1000 to 10000 nM

Question: For `COC(=O)c1ccc(CCc2n[nH]c3ccnc(NC4CCCCC4)c23)cc1` [Example 232, 4-[2-(4-Cyclohexylamino-1H-pyrazolo[4,3-c]pyridin-3-yl)-ethyl]-benzoic acid methyl ester], which IC50 is on record?
Answer: 100 to 1000 nM

Question: With `c1cc2[nH]nc(-c3cnn(CCN4CCOCC4)c3)c2c(NC2CCCCC2)n1` [Example 233, Cyclohexyl-{3-[1-(2-morpholin-4-yl-ethyl)-1H-pyrazol-4-yl]-1H-pyrazolo[4,3-c]pyridin-4-yl}-amine] as the molecule, how does the IC50 read?
Answer: 100 to 1000 nM

Question: For `c1ccc(Cn2cc(-c3n[nH]c4ccnc(NC5CCCCC5)c34)cn2)nc1` [Example 234, Cyclohexyl-[3-(1-pyridin-2-ylmethyl-1H-pyrazol-4-yl)-1H-pyrazolo[4,3-c]pyridin-4-yl]-amine], which IC50 is on record?
Answer: 100 to 1000 nM

Question: How did the IC50 turn out when `CC(C)n1cc(-c2n[nH]c3ccnc(NC4CCCCC4)c23)cn1` [Example 235, Cyclohexyl-[3-(1-isopropyl-1H-pyrazol-4-yl)-1H-pyrazolo[4,3-c]pyridin-4-yl]-amine] was run?
Answer: < 100 nM

Question: For `c1cc2[nH]nc(-c3ccoc3)c2c(OC2CCCCC2)n1` [Example 236, 4-Cyclohexyloxy-3-furan-3-yl-1H-pyrazolo[4,3-c]pyridine], which IC50 is on record?
Answer: < 100 nM

Question: How did the IC50 turn out when `c1cc2[nH]nc(N3CCCC3)c2c(OC2CCCCC2)n1` [Example 237, 4-Cyclohexyloxy-3-pyrrolidin-1-yl-1H-pyrazolo[4,3-c]pyridine] was run?
Answer: 100 to 1000 nM

Question: With `O=C(CCc1n[nH]c2ccnc(NC3CCCCC3)c12)N1CCCC(Oc2ccccc2)C1` (stereo not shown) [Example 238, 3-(4-Cyclohexylamino-1H-pyrazolo[4,3-c]pyridin-3-yl)-1-(3-phenoxy-piperidin-1-yl)-propan-1-one] as the molecule, how does the IC50 read?
Answer: 100 to 1000 nM
